Our source for the IC50, MIC and melting point values is patent publication US9340493B2, “Hydroxamic acid derivatives useful as antibacterial agents” (Pfizer Inc., priority 2008, dated 2016).

≈ marks a conversion by molar mass, not a printed value.

In data set [1] the target is T1, Pseudomonas aeruginosa LpxC enzyme (Pseudomonas aeruginosa, UniProt P47205).
T1 construct: made in house; host or cells: E. coli
T1 sequence (P47205 1-303): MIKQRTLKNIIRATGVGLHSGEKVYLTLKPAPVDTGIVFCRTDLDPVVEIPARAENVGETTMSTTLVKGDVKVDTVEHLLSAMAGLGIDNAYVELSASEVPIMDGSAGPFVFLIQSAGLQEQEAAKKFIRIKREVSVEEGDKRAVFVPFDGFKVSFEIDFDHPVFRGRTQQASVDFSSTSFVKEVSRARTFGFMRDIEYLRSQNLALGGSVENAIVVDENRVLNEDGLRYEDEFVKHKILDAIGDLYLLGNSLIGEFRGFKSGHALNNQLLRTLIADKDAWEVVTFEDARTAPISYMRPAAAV
Put plainly: IC50 assay, LpxC enzyme from P. aeruginosa. Type of data set: biochemical. The following applies: 0.5 nM enzyme, 25° C., pH 8.0, 20 min; ** = average of 2-8 assays. Put shortly: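 P. aeruginosa LpxC (0.5 nM, expressed in E. coli) reacted with 0.5 uM ³H-acetyl-labelled UDP-3-O-(R-3-hydroxydecanoyl)-GlcNAc in 50 mM sodium phosphate pH 8.0 with 1 mg/ml BSA at 25 °C for 20 min. Charcoal stopped the reaction, and filtrate radioactivity was counted by scintillation after no-enzyme background subtraction.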

A further data set has as its system P. aeruginosa PAO280. Nature of the data set: MIC determination, P. aeruginosa PAO280. In kind it is cell-based. Particulars: Pseudomonas aeruginosa, PAO280, read-out: MIC (ug/mL) P. aeruginosa PAO280. A digest of the protocol:
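Broth dilution MIC per CLSI M7-A7/M100-S18 guidelines. Strain PAO280 lacks efflux pumps MexAB-oprM, MexXY and MexZ.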

For another data set, the system named is P. aeruginosa UI-18. Put plainly: MIC determination, P. aeruginosa UI-18. Type of data set: cell-based. The following applies: Pseudomonas aeruginosa, UI18; wild-type; * = arithmetic mean of 2-6 MIC determinations; read-out: MIC (ug/mL) P. aeruginosa UI-18. A digest of the protocol: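 MIC by broth dilution following CLSI M7-A7 and M100-S18 guidelines, tested against wild-type P. aeruginosa UI-18.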

Data set [2] relates to Acinetobacter baumanii/haemolyticus. Nature of the data set: MIC determination, A. baumanii/haemolyticus. In kind it is cell-based. The following applies: Acinetobacter baumannii; multidrug-resistant clinical isolate; * = arithmetic mean of 2-6 MIC determinations; read-out: MIC (ug/mL) A. baumanii/haemolyticus. Put shortly: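 MICs were determined by CLSI broth dilution (M7-A7, M100-S18) against a multidrug-resistant clinical isolate of Acinetobacter baumanii/haemolyticus.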

Another data set deals with Enterobacter aerogenes. Put plainly: MIC determination, E. aerogenes. Type of data set: cell-based. Particulars: Klebsiella aerogenes; quinolone-resistant, ESBL-expressing clinical isolate; * = arithmetic mean of 2-6 MIC determinations; read-out: MIC (ug/mL) E. aerogenes. A digest of the protocol: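 Clinical E. aerogenes isolate, quinolone-resistant and ESBL-expressing. MIC measured in vitro by dilution testing according to CLSI guidelines (M7-A7, M100-S18).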

Another data set relates to Escherichia coli EC-1. Nature of the data set: MIC determination, E. coli EC-1. Type of data set: cell-based. The following applies: EC1, EC-1: VOGEL, * = arithmetic mean of 2-6 MIC determinations, read-out: MIC (ug/mL) E. coli EC-1. Put shortly: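 Minimum inhibitory concentration against Escherichia coli EC-1 was determined in vitro by dilution susceptibility testing under CLSI M7-A7 and M100-S18 guidelines.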

The test system of a further data set is Klebsiella pneumoniae. Nature of the data set: MIC determination, K. pneumoniae. Type of data set: cell-based. The following applies: ciprofloxacin-resistant, ESBL-expressing clinical isolate, * = arithmetic mean of 2-6 MIC determinations, read-out: MIC (ug/mL) K. pneumoniae. Put shortly: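 MIC determined by broth dilution per CLSI M7-A7 and M100-S18 guidelines. Strain: ciprofloxacin-resistant, ESBL-expressing clinical isolate of K. pneumoniae.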

For data set [3], the system named is Staphylococcus aureus ATCC 29213. Nature of the data set: MIC determination, S. aureus ATCC 29213. In kind it is cell-based. The following applies: ATCC29213, CLSI quality control reference strain, * = arithmetic mean of 2-6 MIC determinations, read-out: MIC (ug/mL) S. aureus ATCC 29213. Put shortly: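 MIC was measured by dilution susceptibility testing following CLSI guidelines (M7-A7; M100-S18). The test organism is the CLSI quality-control reference strain.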

The next data set relates to Serratia marcescens. Put plainly: MIC determination, S. marcescens. In kind it is cell-based. The following applies: multidrug-resistant clinical isolate, * = arithmetic mean of 2-6 MIC determinations, read-out: MIC (ug/mL) S. marcescens. On the procedure:
MIC determinations: The in vitro antibacterial activity of compounds described in the Examples was evaluated by minimum inhibitory concentration (MIC) testing according to Clinical and Laboratory Standards Institute (CLSI, formerly NCCLS) guidelines. See: Clinical and Laboratory Standards Institute. Methods for Dilution Antimicrobial Susceptibility Tests for Bacteria that Grow Aerobically; Approved Standard-Seventh Edition. CLSI document M7-A7 [ISBN 1-56238-587-9]. Clinical and Laboratory Standards Institute, 940 West Valley Road, Suite 1400, Wayne, Pa. 19087-1898 USA, 2006; also Clinical and Laboratory Standards Institute. Performance Standards for Antimicrobial Susceptibility Testing; Eighteenth Informational Supplement. CLSI document M100-S18 [ISBN1-56238-653-0]. Clinical and Laboratory Standards Institute.
The following bacterial strains were used:
Serratia marcescens: Multidrug-resistant clinical isolate.

One may read the IC50 as the midpoint of a concentration-inhibition curve. High values mean a need for much substance, low ones inhibition by little substance. By melting point is commonly meant the temperature, or range, at which the solid turns liquid. `CC(OCc1ccc(-c2ccccc2)cc1)C(=O)NO` (stereo not shown) [Example 54, 2-(biphenyl-4-ylmethoxy)-N-hydroxypropanamide] yielded a melting point of 120 to 123 °C. The compound further came in with an IC50 in data set [1] of 0.406 µM. In addition, in the data set with P. aeruginosa PAO280, the MIC is 32 µg/mL (≈ 118 µM). Also, the MIC in the data set with P. aeruginosa UI-18 is greater than 64 µg/mL. Further, the MIC in data set [2] was greater than 64 µg/mL. Besides, the MIC in the data set on Enterobacter aerogenes is greater than 64 µg/mL. Besides, the MIC with Escherichia coli EC-1 is greater than 64 µg/mL. In the data set with Klebsiella pneumoniae, the MIC is greater than 64 µg/mL. The MIC in data set [3] is greater than 64 µg/mL. The MIC in the data set with Serratia marcescens is greater than 64 µg/mL.

In data set [1], `C[C@@H](O)[C@](C)(OCc1ccc(-c2ccccc2)cc1)C(=O)NO` [Example 2b, (2S,3R)-2-(biphenyl-4-ylmethoxy)-N,3-dihydroxy-2-methylbutanamide] yielded an IC50 of 0.00435 µM. Further, the MIC was 0.75 µg/mL (≈ 2.38 µM) in the data set on P. aeruginosa PAO280; 64 µg/mL (≈ 203 µM) in the data set with P. aeruginosa UI-18; greater than 64 µg/mL in data set [2]; greater than 64 µg/mL in the data set on Enterobacter aerogenes; greater than 64 µg/mL in the data set with Escherichia coli EC-1; greater than 64 µg/mL in the data set with Klebsiella pneumoniae. Besides, the MIC (in [3]; in the data set with Serratia marcescens) was greater than 64 µg/mL each time.

The compound `CC[C@H](O)[C@](C)(OCc1ccc(-c2ccccc2)cc1)C(=O)NO` [Example 1, (2S,3S)-2-(biphenyl-4-ylmethoxy)-N,3-dihydroxy-2-methylpentanamide] had an IC50 in [1] of 0.00844 µM. The MIC was 3 µg/mL (≈ 9.11 µM) in the data set with P. aeruginosa PAO280; greater than 64 µg/mL in the data set on P. aeruginosa UI-18; greater than 64 µg/mL in data set [2]; greater than 64 µg/mL with Enterobacter aerogenes; greater than 64 µg/mL in the data set on Escherichia coli EC-1; greater than 64 µg/mL with Klebsiella pneumoniae. Further, the MIC (in data set [3]; in the data set with Serratia marcescens) was greater than 64 µg/mL throughout.

Take `C[C@@](OCc1ccc(-c2ccccc2)cc1)(C(=O)NO)[C@@H](O)c1cccnc1` [Example 12, (2S,3S)-2-(biphenyl-4-ylmethoxy)-N,3-dihydroxy-2-methyl-3-pyridin-3-ylpropanamide]: in data set [1], 0.00181 µM corresponded to half-maximal inhibition (IC50). Moreover, the MIC in the data set with P. aeruginosa PAO280 is 0.5 µg/mL (≈ 1.32 µM); in the data set on P. aeruginosa UI-18, 32 µg/mL (≈ 84.6 µM); in [2], greater than 64 µg/mL; with Enterobacter aerogenes it was greater than 64 µg/mL; with Escherichia coli EC-1 it was greater than 64 µg/mL; with Klebsiella pneumoniae, greater than 64 µg/mL. Moreover, the MIC in [3] is 32 µg/mL (≈ 84.6 µM); with Serratia marcescens it was greater than 64 µg/mL.

Compound `CCCC[C@H](O)[C@](C)(OCc1ccc(-c2ccccc2)cc1)C(=O)NO` [Example 5, (2S,3S)-2-(biphenyl-4-ylmethoxy)-N,3-dihydroxy-2-methylheptanamide] had an IC50 in [1] of 0.0878 µM. The MIC in the data set with P. aeruginosa PAO280 is 16 µg/mL (≈ 44.8 µM); with P. aeruginosa UI-18, greater than 64 µg/mL; in [2] it was greater than 64 µg/mL; in the data set on Enterobacter aerogenes, greater than 64 µg/mL; in the data set on Escherichia coli EC-1 it was greater than 64 µg/mL; with Klebsiella pneumoniae, greater than 64 µg/mL. Also, the MIC was 64 µg/mL (≈ 179 µM) in data set [3] and greater than 64 µg/mL in the data set with Serratia marcescens.

Turning to `O=C(NO)C(CO)(CCO)OCc1ccc(-c2ccccc2)cc1` (stereo not shown) [Example 92], inhibition in [1] was half-maximal at 0.0134 µM (IC50). Besides, the MIC was 2 µg/mL (≈ 6.04 µM) with P. aeruginosa PAO280; greater than 64 µg/mL with P. aeruginosa UI-18; greater than 64 µg/mL in [2]; greater than 64 µg/mL with Enterobacter aerogenes; greater than 64 µg/mL in the data set on Escherichia coli EC-1; greater than 64 µg/mL with Klebsiella pneumoniae. Also, the MIC (in data set [3]; in the data set with Serratia marcescens) was greater than 64 µg/mL in each case.

The compound `CC(C)[C@H](O)[C@](C)(OCc1ccc(-c2ccccc2)cc1)C(=O)NO` [Example 3, (2S,3S)-2-(biphenyl-4-ylmethoxy)-N,3-dihydroxy-2,4-dimethylpentanamide] registered an IC50 in [1] of 0.0716 µM. Further, the MIC with P. aeruginosa PAO280 is 32 µg/mL (≈ 93.2 µM); in the data set on P. aeruginosa UI-18, greater than 64 µg/mL; in [2] it was greater than 64 µg/mL; in the data set with Enterobacter aerogenes, greater than 64 µg/mL; with Escherichia coli EC-1, greater than 64 µg/mL; in the data set with Klebsiella pneumoniae it was greater than 64 µg/mL. For the same compound, the MIC (in [3]; in the data set on Serratia marcescens) was greater than 64 µg/mL in each case.

In [1], `O=C(NO)C(CO)(OCc1ccc(-c2ccccc2)cc1)C(F)(F)F` (stereo not shown) [Example 50, 2-(biphenyl-4-ylmethoxy)-3,3,3-trifluoro-N-hydroxy-2-(hydroxymethyl)propanamide] registered an IC50 of 0.0147 µM. The MIC with P. aeruginosa PAO280 is 1 µg/mL (≈ 2.81 µM); with P. aeruginosa UI-18, 48 µg/mL (≈ 135 µM); in [2], greater than 64 µg/mL; with Enterobacter aerogenes, greater than 64 µg/mL; in the data set on Escherichia coli EC-1, greater than 64 µg/mL; in the data set with Klebsiella pneumoniae, greater than 64 µg/mL. Moreover, the MIC (in data set [3]; with Serratia marcescens) was greater than 64 µg/mL each time.
